Data from PMC10305181, “A VEGFB-Based Peptidomimetic Inhibits VEGFR2-Mediated PI3K/Akt/mTOR and PLCγ/ERK Signaling and Elicits Apoptotic, Antiangiogenic, and Antitumor Activities” (Pharmaceuticals, 2023).
Where two headings read alike, the source gives them in different places. Bridge positions count the residues as written; N and C are the ends. Peptide text beside a SMILES is read from it.

Experiments:
[1] = system: HUVECs; assay: MTT assay, HUVECs; format: cell-based, human; conditions: VEGF 20 ng·mL^−1, C-VGB3 0–0.91 μM, n = 3, read-out: half-inhibitory concentration (IC50), cell viability
Procedure: Figure 4 Inhibition of EC proliferation and tubulogenesis by C-VGB3 through abrogation of VEGFR2-mediated signaling pathways. (A) MTT assay was performed to investigate C-VGB3 effect on the proliferation of ECs. C-VGB3 (0–0.91 μM) was used with (20 ng·mL^−1) or without VEGF. The control cells were treated with no peptide. After 24 and 48 h, the absorbance was measured at 570 nm utilizing an ELISA plate reader (Space Fax 2100, Awareness, Westport, CT, USA). Error bars indicate ± SEM. n = 3; * p = 0.02, ** p = 0.001, *** and ### p = 0.0001, **** and #### p < 0.0001, ns = not significant; one-way ANOVA. (B) The anti-tubulogenesis effect of C-VGB3 in VEGF (20 ng·mL^−1)-induced HUVECs. Image analysis performed by Wimasis image analysis software is illustrated in the bottom panel. Error bars indicate ±SEM. n = 3; *** 0.0004 ≤ p ≤ 0.0001; unpaired Student’s t-test. To evaluate the mechanism by which C-VGB3 diminished cell proliferation and tube formation, Western blot analysis was performed for HUVECs. […]
The effects of C-VGB3 and L-VGB3 on the cell survival of HUVE and 4T1 cell lines were investigated using the MTT assay, as previously described, with some modifications. […] After 24 and 48 h of incubation at 37 °C, the absorbance at 570 nm was recorded using an ELISA plate reader (Space Fax 2100, Awareness, Palm City, FL, USA). […]

[2] = system: extracellular domain of VEGFR2 (KDR); assay: ELISA-based displacement (competition binding) of biotinylated VEGF from VEGFR2; conditions: ELISA, n = 3
Procedure: Figure 3 The binding affinity of C-VGB3 to VEGFR2. (A) ELISA-based displacement assay. The gradient concentrations of C-VGB3 (0, 0.316, 1, 3.16, 10, 31.6, 100, and 316 μM) were used in the assay. […] Error bars denote ± SEM. n = 3; ** p = 0.001, *** p = 0.0001, **** p < 0.0001, ns = not significant; one-way ANOVA. (B) A three-dimensional (produced by UCSF chimera software version 1.12) and a two-dimensional representation (produced by LigPlot software) of interactions in the C-VGB3/VEGFR2 complex is shown on the left and the right, respectively.
A displacement assay was conducted as reported previously with some modifications, including using 20 ng of the VEGFR2 extracellular domains (R&D Systems, Minneapolis, MN, USA). Peptide compounds were assayed three times per experiment.
Figure S6. Evaluating the binding capability of L-VGB3 to VEGFR2
(A) ELISA-based displacement assay. The gradient concentrations of L-VGB3 (3.16, 10, […]
to the extracellular domain of VEGFR2 at applied concentrations. (B) Two-dimensional representation of interactions (produced by LigPlot software) in L-VGB3/VEGFR2 […]

[3] = system: signaling proteins in HUVECs; assay: Western blot analysis, HUVECs; format: cell-based, human; conditions: 0.40 μM
Procedure: Next, to explore the mechanisms of the antiangiogenic property of C-VGB3, canonical signaling pathways mediated by VEGFR2 were assessed in HUVECs after 24 h incubation with C-VGB3 (0.40 μM). The binding of VEGF to VEGFR2 causes autophosphorylation of its tyrosine kinase domain and increases the receptor′s expression level on the cell surface. Therefore, we evaluated the ability of C-VGB3 to suppress the levels of constitutive and phosphorylated VEGFR2 in HUVECs.
The levels of signaling proteins were investigated by the Western blot assay. 4T1 and HUVE cells stimulated by VEGF (20 ng·mL^−1) were treated with (0.40 μM) or without C-VGB3 (treatment and control groups, respectively) after starvation in a serum-free medium for 24 h. After washing with PBS buffer twice, the cells were treated with RIPA lysis buffer containing (Sigma, St. Louis, MO, USA). Bradford′s test was performed to estimate the protein concentration. Equal amounts of total protein were electrophoresed on a 10% SDS-polyacrylamide gel, separated, and then transferred to a nitrocellulose membrane. Nitrocellulose was soaked in a blocking buffer containing 5% dry milk, Tris-buffered saline, and Tween 20 (TBST) for 1 h at ambient temperature. The nitrocellulose membrane was then washed with wash buffer and treated with antibodies against VEGFR2 p-VEGFR2, AKT, p-AKT, PI3K, mTOR, p-mTOR, NF-κB, p-NFκB, P53, MDM2, Bax, Bcl2, Bid, Bim, Apaf-1, cytochrome c, caspase-9, Fas (CD95), DR4 (CD261), DR5 (CD262), caspase3, caspase7, caspase8, PARP1, ERK 1/2, p-ERK1/2, Ras, Raf, Cdk4, GSK-3β, cyclin D1, vimentin, N-cadherin, E-cadherin, FAK, p-FAK, paxillin, p-paxillin, and β-actin overnight at 4 °C. The next steps were performed as described previously. Because molecular weight ranges of target signaling proteins are very close, individual gels were run for separate signaling proteins (Figure S7).

## CC(C)C[C@@H]1NC(=O)CNC(=O)[C@H](CC(=O)O)NC(=O)[C@H](CC(=O)O)NC(=O)[C@@H]2CCCN2C(=O)[C@@H]2CCCN2C(=O)[C@H](CCCNC(=N)N)NC(=O)[C@@H](NC(=O)[C@@H](N)CCC(=O)O)CSSC[C@@H](C(=O)O)NC1=O [C-VGB3] (H-ECRPPDDGLC-OH; disulfide 2-10)
[1]; 24 h
  IC50: 510 nM
[1]; 48 h
  IC50: 380 nM
[2]; 0-316 μM
  inhibition of binding of bt-VEGF to KDR: inhibits the binding of biotinylated VEGF (bt-VEGF) to KDR dose-dependently
[2]; 100 μM, ectodomain of VEGFR2
  displacement of btVEGF165: 58%
[3]; 24 h, p < 0.0001
  AKT level: markedly reduced
  CDK4 level: decreased
  RAS level: decreased
  mTOR total expression: strongly suppressed
  p-AKT level: markedly reduced
  p-VEGFR2 formation: markedly inhibited
[3]; 24 h, p = 0.0001
  CyclinD1 level: decreased
  p-ERK1/2 level: decreased
[3]; 24 h, p = 0.001
  GSK3 expression: increased expression
  NF-κB phosphorylation: suppressed
  PI3K expression level: decreased
  RAF level: decreased
  VEGFR2 level: markedly inhibited
  mTOR phosphorylation: strongly suppressed
[3]; 24 h, p = 0.02
  ERK1/2 level: decreased
  NF-κB expression: decreased
[3]; HUVECs (first of 'respectively'), p < 0.0001
  increase in cleaved PARP1: 3.50 fold
[3]; HUVECs
  increase in Bax/Bcl2 ratio: approximately 3.35 fold
  increased level of cleaved caspase-3: 3.8 times
  increased level of cleaved caspase-7: 3.3 times
  increased level of cleaved caspase-9: 1.4 times
[3]; HUVECs, p < 0.0001
  Bid expression level: increased
[3]; HUVECs, p = 0.0001
  Apaf1: increase
  Bax level: increased
  Bcl2 expression: decrease
  P53 level: enormously increased
[3]; HUVECs, p = 0.001
  Bim level: increased
  DR4 level: increase
  MDM2 level: markedly decreased
[3]; HUVECs, p = 0.02
  DR5 level: increase
  Fas expression: slightly increased
  cytochrome c: increase
